Experimental data reported in patent publication US11667638B2, “4-substitued cytisine analogues” (The University of Bristol, priority 2016, dated 2023).

Assays:
α4β2 nAChR = α4β2 nAChR (Homo sapiens (Human), UniProt P17787+P43681); format: binding; settings: for Ratio α3β4/α4β2: ratio of Ki values
Experimental: (§1) HEK 293 cells were grown in Dulbecco's modified Eagle medium supplemented with 10% fetal bovine serum, 1% L-Glutamine, 100 units/ml penicillin G, and 100 μg/streptomycin in a humidified atmosphere containing 10% CO2. The cDNAs encoding α3 and β4 or α4 and β2 (were transfected into the HEK 293 cells at 30% confluency). The cell transfections were carried out in 100 mm Petri dishes using 30 μL of JetPEI™ (Polypus, France) (1 mg/ml, pH 7.2) and 3 μg of each cDNA. After 24 h transfection, the cells were collected, washed with PBS by centrifugation, and used for binding analysis.
(§2) [^3H]-epibatidine saturation binding experiments to HEK transfected α3β4 or α4β2 receptors were performed by means of overnight incubation at 4° C. at concentrations ranging from 0.005 to 1 nM in a buffer containing 50 mM Tris-HCl, pH 7, 150 mM NaCl, 5 mM KCl, 1 mM MgCl2, 2.5 mM CaCl2 and 2 mg/ml BSA, in the presence (aspecific binding) or absence (total binding) of 100 nM cold epibatidine. Specific ligand binding was defined as total binding minus the binding in the presence of 100 nM cold epibatidine.
(§3) After incubation, the membranes of HEK cells transfected with α4β2* or α3β4 subtypes were washed by filtration on GFC filters with ice-cold PBS. The GFC filters were pre-soaked in polyethylenimine and filtered through an harvester apparatus. [^3H]-epibatidine binding was determined by means of liquid scintillation counting in a beta counter.
(§4) The ligand binding data were analyzed by means of nonlinear regression using Prism version 5 (GraphPad Software, Inc., La Jolla, Calif.). The Ki values were calculated from the experimental IC50 values using the Cheng-Prusoff equation for a single population of competitive sites: Ki=IC50/[1+(L/Kd)], where L is the concentration of radioligand used in each experiment and the Kd values were determined by saturation binding experiment. All of the assays were performed in duplicate and repeated at least two-three times.

α3β4 nAChRs = α3β4 nAChRs (Homo sapiens (Human), UniProt P30926+P32297); test: Maximal gating efficacy on α3β4 nAChRs in Xenopus oocytes, two electrode voltage clamp; format: cell-based; settings: maximal current relative to 1 mM ACh
Experimental: (§5) Compounds of the invention were tested for effects on the function of human α4β2, α3β4 and α7 nicotinic acetylcholine receptors (nAChRs) expressed heterologously in Xenopus oocytes. […] Expression in oocytes was obtained as follows: pCI (Promega, UK) plasmid containing human α4, β2, β4 or α7 complementary DNA were injected as previously described (Moroni et al., 2006). To express (α4)3(β2)2 nACh receptors, a mixture of 10α4:1β2 cDNAs was injected into the nucleus of oocytes, whereas for (α4)2(β2)3 receptors the cDNA ratio injected was 1α4:10β2.
(§6) Functional studies: Recordings were performed manually using a Geneclamp amplifier (Molecular Devices, USA) or using an automated HiClamp system. In both cases the oocytes were impaled with two electrodes filled with 3 M KCl and the cells were held at −60 mV throughout the experiments.
(§7) Oocyte isolation and two-electrode voltage-clamp recordings on oocytes were carried out as previously described (Moroni et al., 2006; Carbone et al., 2009). […] A minimum interval of 5 min was allowed between agonist applications to ensure reproducible recordings. Oocytes were exposed to increasing concentrations of the compounds until no further increases in the response amplitude were obtained. This concentration was taken as the concentration that causes maximal responses on the receptors tested. The data summarised in Tables 1-4 were obtained from at least 5 experiments carried out on oocytes obtained from at least three different donors.
Maximal gating efficacy of the compounds on α3β4 nAChRs: The concentration of the compounds causing maximal activation of α3β4 nAChRs expressed heterologously in Xenopus oocytes was determined using two electrode voltage clamping.

(α4)3(β2)2 nAChRs = (α4)3(β2)2 nAChRs (Homo sapiens (Human), UniProt P17787+P43681); test: Maximal gating efficacy on (α4)3(β2)2 nAChRs in Xenopus oocytes, two electrode voltage clamp; format: cell-based; settings: (α4)3(β2)2, low sensitivity stoichiometry; maximal current relative to 1 mM ACh
Experimental: as §5, §6, §7
Maximal gating efficacy of the compounds: The concentration of the compounds of the invention causing maximal activation of the (α4)3(β2)2 nAChRs expressed heterologously in Xenopus oocytes was determined using two electrode voltage clamping.

α7 nAChRs = α7 nAChRs (Homo sapiens (Human), UniProt P36544); format: cell-based; settings: compounds at 100 μM, relative to 1 mM ACh
Experimental: as §5, §6, §7

(α4)2(β2)3 nAChRs = (α4)2(β2)3 nAChRs (Homo sapiens (Human), UniProt P17787+P43681); test: Maximal gating efficacy on (α4)2(β2)3 nAChRs in Xenopus oocytes, two electrode voltage clamp; format: cell-based; settings: (α4)2(β2)3, high sensitivity receptors; maximal current relative to 1 mM ACh
Experimental: as §5, §6, §7
Maximal gating efficacy of compounds on (α4)2(β2)3 receptors (high sensitivity receptors): The concentration of the compounds causing maximal activation of the (α4)2(β2)3 nAChRs expressed heterologously in Xenopus oocytes was determined using two electrode voltage clamping.

α3β4 nAChR = α3β4 nAChR (Homo sapiens (Human), UniProt P30926+P32297); format: binding; settings: human α3β4 in HEK 293, 0.5 nM [3H]-epibatidine; range printed after the value
Experimental: as §1, §2, §3, §4

Human α7 = Human α7 (Homo sapiens (Human), UniProt P36544); format: binding; settings: read-out: Human α7 K(i)
Rat α7 = Rat α7 (Rattus norvegicus (Rat), UniProt Q05941); format: binding; settings: range printed after the value
Experimental: as §4

Chain of α3β4 nAChRs (P32297 32-505): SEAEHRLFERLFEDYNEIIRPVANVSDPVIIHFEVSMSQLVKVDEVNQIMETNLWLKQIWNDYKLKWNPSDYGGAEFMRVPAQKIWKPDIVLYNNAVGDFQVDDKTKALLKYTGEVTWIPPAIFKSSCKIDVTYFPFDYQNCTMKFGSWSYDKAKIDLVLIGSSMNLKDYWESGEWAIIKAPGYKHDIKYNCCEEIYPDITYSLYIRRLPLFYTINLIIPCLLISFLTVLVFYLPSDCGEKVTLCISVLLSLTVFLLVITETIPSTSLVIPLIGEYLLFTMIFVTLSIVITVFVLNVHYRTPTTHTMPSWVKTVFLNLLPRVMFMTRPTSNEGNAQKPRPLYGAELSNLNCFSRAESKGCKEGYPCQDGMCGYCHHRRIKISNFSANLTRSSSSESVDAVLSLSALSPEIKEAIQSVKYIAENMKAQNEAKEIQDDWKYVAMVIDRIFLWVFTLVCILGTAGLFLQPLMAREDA
Chain of α3β4 nAChRs (P30926 22-498): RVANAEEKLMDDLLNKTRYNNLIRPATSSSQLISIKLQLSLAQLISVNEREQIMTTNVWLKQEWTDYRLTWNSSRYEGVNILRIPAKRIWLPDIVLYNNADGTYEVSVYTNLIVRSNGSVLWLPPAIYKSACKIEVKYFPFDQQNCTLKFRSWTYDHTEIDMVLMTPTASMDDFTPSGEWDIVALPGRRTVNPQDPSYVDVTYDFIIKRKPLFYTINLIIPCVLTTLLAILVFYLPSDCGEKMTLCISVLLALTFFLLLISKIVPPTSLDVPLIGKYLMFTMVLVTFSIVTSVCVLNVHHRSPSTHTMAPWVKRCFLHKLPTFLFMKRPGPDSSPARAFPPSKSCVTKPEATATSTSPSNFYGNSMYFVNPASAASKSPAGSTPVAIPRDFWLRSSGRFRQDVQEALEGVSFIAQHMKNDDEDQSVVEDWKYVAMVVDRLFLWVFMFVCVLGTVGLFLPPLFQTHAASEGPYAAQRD
Chain of α7 nAChRs (P36544 23-502): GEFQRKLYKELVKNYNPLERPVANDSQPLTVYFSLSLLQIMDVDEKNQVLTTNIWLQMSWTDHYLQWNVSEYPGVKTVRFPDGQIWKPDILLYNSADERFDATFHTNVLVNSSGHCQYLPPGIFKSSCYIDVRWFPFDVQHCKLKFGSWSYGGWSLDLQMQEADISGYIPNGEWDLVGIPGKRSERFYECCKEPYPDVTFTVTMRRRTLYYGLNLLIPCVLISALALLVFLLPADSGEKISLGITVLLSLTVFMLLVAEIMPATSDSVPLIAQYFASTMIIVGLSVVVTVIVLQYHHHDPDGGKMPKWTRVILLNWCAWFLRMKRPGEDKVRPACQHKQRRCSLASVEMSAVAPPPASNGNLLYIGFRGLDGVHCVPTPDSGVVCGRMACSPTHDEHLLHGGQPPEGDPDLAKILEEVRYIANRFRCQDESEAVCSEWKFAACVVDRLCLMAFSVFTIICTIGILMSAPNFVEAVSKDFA
Chain of (α4)2(β2)3 nAChRs (P43681 29-627): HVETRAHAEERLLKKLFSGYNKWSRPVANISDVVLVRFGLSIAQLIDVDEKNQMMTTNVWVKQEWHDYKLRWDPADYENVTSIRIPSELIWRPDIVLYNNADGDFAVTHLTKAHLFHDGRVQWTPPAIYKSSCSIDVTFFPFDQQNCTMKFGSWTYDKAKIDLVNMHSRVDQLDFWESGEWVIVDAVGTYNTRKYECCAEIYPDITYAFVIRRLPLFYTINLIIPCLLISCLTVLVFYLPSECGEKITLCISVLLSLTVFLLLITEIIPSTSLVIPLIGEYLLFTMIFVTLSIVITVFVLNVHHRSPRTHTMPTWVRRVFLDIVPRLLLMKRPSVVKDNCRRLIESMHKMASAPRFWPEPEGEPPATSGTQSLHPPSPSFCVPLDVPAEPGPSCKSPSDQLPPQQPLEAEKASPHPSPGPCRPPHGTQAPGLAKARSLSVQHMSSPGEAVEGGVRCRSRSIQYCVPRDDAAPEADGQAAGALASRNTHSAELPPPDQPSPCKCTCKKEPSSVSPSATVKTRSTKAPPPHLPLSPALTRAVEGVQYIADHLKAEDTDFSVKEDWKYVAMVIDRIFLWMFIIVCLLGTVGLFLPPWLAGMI
Chain of (α4)2(β2)3 nAChRs (P17787 26-502): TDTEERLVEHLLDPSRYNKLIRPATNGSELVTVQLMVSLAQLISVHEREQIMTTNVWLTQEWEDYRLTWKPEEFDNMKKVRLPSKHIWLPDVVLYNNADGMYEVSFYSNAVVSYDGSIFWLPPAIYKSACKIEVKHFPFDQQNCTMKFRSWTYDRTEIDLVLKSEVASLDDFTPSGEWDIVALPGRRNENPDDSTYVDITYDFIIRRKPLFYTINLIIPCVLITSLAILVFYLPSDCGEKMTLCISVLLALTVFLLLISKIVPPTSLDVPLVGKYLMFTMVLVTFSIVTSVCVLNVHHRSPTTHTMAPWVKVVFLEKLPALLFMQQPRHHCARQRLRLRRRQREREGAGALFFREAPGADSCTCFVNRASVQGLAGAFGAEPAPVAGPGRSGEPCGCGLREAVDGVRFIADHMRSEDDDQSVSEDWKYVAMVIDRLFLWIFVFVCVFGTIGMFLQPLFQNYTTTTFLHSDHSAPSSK
Chain of (α4)3(β2)2 nAChRs (P43681 29-627): as the sequence (P43681 29-627) above
Chain of (α4)3(β2)2 nAChRs (P17787 26-502): as the sequence (P17787 26-502) above
Chain of α4β2 nAChR (P43681 29-627 limits assumed): as the sequence (P43681 29-627) above
Chain of α4β2 nAChR (P17787 26-502 limits assumed): as the sequence (P17787 26-502) above
Chain of α3β4 nAChR (P32297 32-505 limits assumed): as the sequence (P32297 32-505) above
Chain of α3β4 nAChR (P30926 22-498 limits assumed): as the sequence (P30926 22-498) above
Chain of Human α7 (P36544 23-502 limits assumed): as the sequence (P36544 23-502) above
Chain of Rat α7 (Q05941 23-502 limits assumed): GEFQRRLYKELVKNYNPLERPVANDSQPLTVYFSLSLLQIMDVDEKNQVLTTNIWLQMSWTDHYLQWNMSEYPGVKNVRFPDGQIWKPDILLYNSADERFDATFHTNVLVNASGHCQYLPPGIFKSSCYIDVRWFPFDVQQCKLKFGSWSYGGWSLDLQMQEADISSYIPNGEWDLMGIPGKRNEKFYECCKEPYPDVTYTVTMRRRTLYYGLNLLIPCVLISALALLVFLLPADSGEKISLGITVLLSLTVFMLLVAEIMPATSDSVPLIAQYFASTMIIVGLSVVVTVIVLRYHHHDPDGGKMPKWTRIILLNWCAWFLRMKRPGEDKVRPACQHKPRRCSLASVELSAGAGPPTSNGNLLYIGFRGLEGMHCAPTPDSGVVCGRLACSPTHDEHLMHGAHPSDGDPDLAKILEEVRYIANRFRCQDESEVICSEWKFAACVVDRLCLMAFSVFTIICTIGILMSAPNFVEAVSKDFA

Cl.O=c1cc(CO)cc2n1CC1CNC[C@@H]2C1 (single isomer, unassigned; (-)) [Compound 122, (−)4-(Hydroxymethyl)cytisine]
Ratio α3β4/α4β2 (α4β2 nAChR): 73.0 | Relative efficacy (ACh) (α3β4 nAChRs): 0.015 ± 0.020 | Relative efficacy (ACh) ((α4)3(β2)2 nAChRs): 0.058 ± 0.057 | Relative efficacy (ACh) (α7 nAChRs): 0.0067 ± 0.0015 | Relative efficacy (ACh) ((α4)2(β2)3 nAChRs): 0.025 ± 0.000

Cl.O=c1cc(-c2c(F)c(F)c(F)c(F)c2F)cc2n1CC1CNC[C@@H]2C1 (single isomer, unassigned; (-)) [Compound 75, (−)4-(Perfluorophenyl)cytisine]
Ratio α3β4/α4β2 (α4β2 nAChR): 8.1 | Relative efficacy (ACh) (α3β4 nAChRs): 0.120 ± 0.039 | Relative efficacy (ACh) ((α4)3(β2)2 nAChRs): 0.011 ± 0.010 | Relative efficacy (ACh) (α7 nAChRs): 0.0007 ± 0.0006 | Relative efficacy (ACh) ((α4)2(β2)3 nAChRs): 0.050 ± 0.071

O=c1cccc2n1C[C@@H]1CNC[C@H]2C1 [Cytisine, cytisine]
Ki (α4β2 nAChR; human α4β2 in HEK 293, 0.25 nM [3H]-epibatidine, range printed after the value): 1.27 nM | Ratio α3β4/α4β2 (α4β2 nAChR): 81.1 | Ki (α3β4 nAChR): 103 nM | Ki (Human α7): 691 nM | Relative efficacy (ACh) (α3β4 nAChRs): 0.54 ± 0.01 | Relative efficacy (ACh) ((α4)3(β2)2 nAChRs): 0.19 ± 0.07 | Ki (Rat α7): 662 nM | Relative efficacy (ACh) ((α4)2(β2)3 nAChRs): 0.02 ± 0.001

Cc1cc2n(c(=O)c1)CC1CNC[C@@H]2C1.Cl (single isomer, unassigned; (-)) [Compound 110, (−)4-Methylcytisine]
Ratio α3β4/α4β2 (α4β2 nAChR): 864.3 | Relative efficacy (ACh) (α3β4 nAChRs): 0.0708 ± 0.059 | Relative efficacy (ACh) ((α4)3(β2)2 nAChRs): 0.014 ± 0.007 | Relative efficacy (ACh) (α7 nAChRs): 0.0017 ± 0.0024 | Relative efficacy (ACh) ((α4)2(β2)3 nAChRs): 0.041 ± 0.004

O=c1cc(-c2ccccn2)cc2n1CC1CNC[C@@H]2C1 (single isomer, unassigned; (-)) [Compound 101, (−)4-(2-Pyridinyl)cytisine]
Ratio α3β4/α4β2 (α4β2 nAChR): 1575.0 | Relative efficacy (ACh) (α3β4 nAChRs): 0.066 ± 0.056 | Relative efficacy (ACh) ((α4)3(β2)2 nAChRs): 0.009 ± 0.008 | Relative efficacy (ACh) (α7 nAChRs): 0.16 ± 0.03 | Relative efficacy (ACh) ((α4)2(β2)3 nAChRs): 0.0001 ± 0.00008

O=c1cc(O)cc2n1CC1CNC[C@@H]2C1 (single isomer, unassigned; (+)) [Compound 67, (+)4-Hydroxycytisine]
Ratio α3β4/α4β2 (α4β2 nAChR): 397.8 | Relative efficacy (ACh) (α3β4 nAChRs): 0.047 ± 0.036 | Relative efficacy (ACh) ((α4)3(β2)2 nAChRs): 0.07 ± 0.009 | Relative efficacy (ACh) (α7 nAChRs): No response at 100 μM | Relative efficacy (ACh) ((α4)2(β2)3 nAChRs): 0.005 ± 0.0001

O=c1cc(-c2ccncc2)cc2n1CC1CNC[C@@H]2C1 (single isomer, unassigned; (-)) [Compound 103, (−)4-(4-Pyridinyl)cytisine]
Ratio α3β4/α4β2 (α4β2 nAChR): 859.6 | Relative efficacy (ACh) (α3β4 nAChRs): 0.016 ± 0.010 | Relative efficacy (ACh) ((α4)3(β2)2 nAChRs): 0.023 ± 0.006 | Relative efficacy (ACh) (α7 nAChRs): 0.07 ± 0.009 | Relative efficacy (ACh) ((α4)2(β2)3 nAChRs): 0.0067 ± 0.0006

O=c1cc(Cl)cc2n1CC1CNC[C@@H]2C1 (single isomer, unassigned; (-)) [Compound 60, (−)4-Chlorocytisine]
Ratio α3β4/α4β2 (α4β2 nAChR): 328.6 | Relative efficacy (ACh) (α3β4 nAChRs): 0.133 ± 0.017 | Relative efficacy (ACh) ((α4)3(β2)2 nAChRs): 0.110 ± 0.08 | Relative efficacy (ACh) (α7 nAChRs): 0.38 ± 0.09 | Relative efficacy (ACh) ((α4)2(β2)3 nAChRs): 0.01 ± 0.007
